Assay results published in patent publication US9720005B2, “Immunoassay for compounds of the NBOMe family” (Randox Laboratories Limited, priority 2014, dated 2017).
Values after ≈ are worked out from the molar mass of the structure shown. Structures can show the parent of a compound that is named as a salt.

Experiments:
Antibody (RS2708) = assay: Competitive ELISA for NBOMe based compounds (Example 13), HRP tracer vs calibrator/cross-reactant; format: binding, sheep; conditions: for % Cross-reactivity: IC50 25I-NBOMe.HCL/IC50 CR×100; for % CR: relative to 25I-NBOMe.HCl
Method: IgG was extracted from the antisera using ammonium sulphate/caprylic acid precipitation and the purified antibody was immobilised on a 96 well ELISA plate at 5 μg/ml in 10 mM TRIS buffer, pH 8.5 overnight at 4° C. […] The plate was washed (×3) with TBST and the calibrator (25I-NBOMe.HCL) or potential cross reactants added (50 μl per well), followed by HRP tracer (75 μl/well) to the appropriate wells. The plates were then incubated for 60 minutes at 25° C. […] 125 μL of signal (TMB) was then added to each well for 20 mins at room temperature in the dark. The reaction was stopped by the addition of 125 μl of 0.2 M Sulphuric Acid per well and the plates read immediately at 450 nm. Calibration curves were generated and these were used to determine the sensitivity and specificity of the immunoassay for 25I-NBOMe-HCL and potential cross-reactants. The data are inputted to a computer program called ‘KC Junior’ (Biotek). It gives a 4 parameter fit curve and allows the calculation of concentrations between the standard runs. This program is used to calculate the IC50 values by dividing the 0 ng/ml optical density (OD) value by 2 and obtaining the concentration value from the curve for this OD. The results of this study are presented in Tables 1-3, cross-reactivity being calculated according to the following formula: % CR=IC50 25I-NBOMe.HCL/IC50 CR×100
Wherein % CR is the percentage cross-reactivity, IC50 25I-NBOMe HCL is the concentration of 25I-NBOMe-HCL which causes 50% displacement of signal and IC50 CR is the concentration of potential cross-reactant that causes 50% displacement of signal.

[1] = recreational drug use; cited from earlier work
[2] = case study of 25I-NBOMe use; cited from earlier work
[3] = Table 2, antibody coated at 5 μg/ml, HRP tracer at 1/64K

SMILES | % Cross-reactivity (Antibody (RS2708); Table 2) | IC50 (Antibody (RS2708); [3]) | other results
COc1cc([N+](=O)[O-])c(OC)cc1CCNCc1ccccc1O [Compound 25N-NBOH] | 26.7% | 0.615 ng/mL (≈ 1.85 nM) | –
CCCc1cc(OC)c(CCNCc2ccccc2OC)cc1OC [25P-NBOMe•HCl] | 111.6% | 0.147 ng/mL | –
CCSc1cc(OC)c(CCNCc2ccccc2OC)cc1OC.Cl [25T2-NBOMe•HCl] | 120.6% | 0.136 ng/mL | –
COc1cc(CCNCc2ccccc2OC)c(OC)cc1I [25I-NBOMe•HCl, 2-(4-Iodo-2,5-dimethoxyphenyl)-N-[(2-methoxyphenyl)methyl] ethanamine] | 100% | 0.164 ng/mL | B/Bo (Antibody (RS2708); Conc. 0.03125 ng/ml, 0 ng/ml = 100.0): 90.2; B/Bo (Antibody (RS2708); Conc. 0.0625 ng/ml, 0 ng/ml = 100.0): 80.2; B/Bo (Antibody (RS2708); Conc. 0.125 ng/ml, 0 ng/ml = 100.0): 61.3; B/Bo (Antibody (RS2708); Conc. 0.25 ng/ml, 0 ng/ml = 100.0): 33.4; B/Bo (Antibody (RS2708); Conc. 0.5 ng/ml, 0 ng/ml = 100.0): 14.7; B/Bo (Antibody (RS2708); Conc. 1 ng/ml, 0 ng/ml = 100.0): 7.6; B/Bo (Antibody (RS2708); Conc. 2 ng/ml, 0 ng/ml = 100.0): 5.3; IC50 (Antibody (RS2708); Table 1, antibody coated at 5 μg/ml, HRP tracer at 1/64K): 0.164 ng/mL
COc1cc(SC(C)C)c(OC)cc1CCNCc1ccccc1OC [25T4-NBOMe•HCl] | 118% | 0.139 ng/mL | –
COc1cc(CCNCc2ccccc2OC)c(OC)cc1C [25D-NBOMe•HCl, 2-(2,5-Dimethoxy-4-methylphenyl)-N-[(2-methoxyphenyl)methyl]ethanamine] | 157.7% | 0.104 ng/mL | –
COc1ccccc1CNCCc1cc(OC)c(OC)c(OC)c1.Cl [Mescaline-NBOMe•HCl] | 164% | 0.1 ng/mL | –
CCCSc1cc(OC)c(CCNCc2ccccc2OC)cc1OC [25T7-NBOMe•HCl] | 118% | 0.139 ng/mL | –
COc1ccc(OC)c(CCNCc2ccccc2OC)c1 [25H-NBOMe•HCl, 2-(2,5-dimethoxyphenyl)-N-(2-methoxybenzyl)ethanamine] | 170.8% | 0.096 ng/mL | –
COc1cc(CCN)c(OC)cc1Br [Compound 2C-B] | – | – | B/Bo (Antibody (RS2708); Table 4, samples @ 100 ng/ml): 89.9; IC50 (Antibody (RS2708); Table 4, samples @ 100 ng/ml): >100; % CR (Antibody (RS2708); Table 4, samples @ 100 ng/ml): <0.16%
COc1cc([N+](=O)[O-])c(OC)cc1CCNCc1ccccc1OC [25N-NBOMe•HCl, N-(2-Methoxybenzyl)-2-(2,5-dimethoxy-4-nitrophenyl)ethylamine] | 115.5% | 0.142 ng/mL | –
CCc1cc(OC)c(CCNCc2ccccc2OC)cc1OC [25E-NBOMe•HCl] | 126.2% | 0.13 ng/mL | –
COc1cc(CCN)c(OC)cc1I [Compound 2C-I] | – | – | B/Bo (Antibody (RS2708); Table 4, samples @ 100 ng/ml): 88.8; IC50 (Antibody (RS2708); Table 4, samples @ 100 ng/ml): >100; % CR (Antibody (RS2708); Table 4, samples @ 100 ng/ml): <0.16%; dose [1]: around 20 milligrams
COc1cc(CCNCc2ccccc2OC)c(OC)cc1I [Compound 25I-NBOMe, 2-(4-Iodo-2,5-dimethoxyphenyl)-N-[(2-methoxyphenyl)methyl] ethanamine] | – | – | Clinical features [2]: tachycardia, hypertension, agitation, aggression, visual and auditory hallucinations, seizures, hyperplexia, clonus, elevated white cell count, elevated creatine kinase, metabolic acidosis and acute kidney injury; dose [1]: less than one milligram
COc1cc(CCNCc2ccccc2OC)c(OC)cc1Br [25B-NBOMe•HCl, 2-(4-Bromo-2,5-dimethoxyphenyl)-N-[(2-methoxyphenyl)methyl]ethanamine] | 118.8% | 0.138 ng/mL | –
COc1cc(CC(C)N)c(OC)cc1Br (stereo not shown) [DOB, 2,5-Dimethoxy-4-bromoamphetamine] | – | – | B/Bo (Antibody (RS2708); Table 4, samples @ 100 ng/ml): 91.8; IC50 (Antibody (RS2708); Table 4, samples @ 100 ng/ml): >100; % CR (Antibody (RS2708); Table 4, samples @ 100 ng/ml): <0.16%
CCc1cc(OC)c(CCN)cc1OC [Compound 2C-E] | – | – | B/Bo (Antibody (RS2708); Table 4, samples @ 100 ng/ml): 92.2; IC50 (Antibody (RS2708); Table 4, samples @ 100 ng/ml): >100; % CR (Antibody (RS2708); Table 4, samples @ 100 ng/ml): <0.16%
COc1cc(CCNCc2ccccc2O)c(OC)cc1N [25(NH2)-NBOH] | 18.5% | 0.887 ng/mL (≈ 2.93 nM) | –
